Data taken from patent US20080200441A1, “ESTROGEN RECEPTOR MODULATORS ASSOCIATED PHARMACEUTICAL COMPOSITIONS AND METHODS OF USE” (University of Southern California, priority 2007, published 2008).

Columns and labels:
[1] = tested on: ERK2; assay: ERK phosphorylation, Western immunoblotting; conditions: 10 nM, 30 min
[2] = biological target: T1, full-length human ERα (Homo sapiens, UniProt P03372); assay: Fluorescence polarization-based competitive binding assay, ERα
T1 sequence (P03372 1-595): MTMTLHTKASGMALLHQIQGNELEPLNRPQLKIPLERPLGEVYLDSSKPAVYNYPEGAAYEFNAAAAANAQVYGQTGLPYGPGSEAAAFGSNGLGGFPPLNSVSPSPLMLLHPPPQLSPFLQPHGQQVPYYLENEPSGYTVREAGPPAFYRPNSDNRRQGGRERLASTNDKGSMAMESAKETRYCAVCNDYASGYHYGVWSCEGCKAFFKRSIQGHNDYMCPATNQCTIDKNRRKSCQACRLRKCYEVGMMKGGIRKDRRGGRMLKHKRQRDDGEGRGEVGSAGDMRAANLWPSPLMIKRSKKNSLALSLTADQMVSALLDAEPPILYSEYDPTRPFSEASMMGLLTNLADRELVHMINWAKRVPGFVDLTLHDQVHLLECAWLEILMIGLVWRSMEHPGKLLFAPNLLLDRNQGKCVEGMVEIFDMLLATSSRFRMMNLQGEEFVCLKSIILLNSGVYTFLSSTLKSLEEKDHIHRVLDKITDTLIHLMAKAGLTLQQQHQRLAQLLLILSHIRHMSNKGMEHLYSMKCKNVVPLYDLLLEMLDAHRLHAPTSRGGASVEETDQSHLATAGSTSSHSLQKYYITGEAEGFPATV

[3] = tested on: rat primary hippocampal neurons; assay: Neuroprotection against glutamate-induced neurotoxicity, calcein AM staining; type: cell-based
Text: The combined use of Calcein AM and Ethidium Homodimer-1 (Molecular Probes, Inc., Eugene, Oreg.) provides a two-color fluorescence analysis that allows simultaneous determination of live and dead cells with two probes that measure two recognized parameters of cell viability respectively, intracellular esterase activity and plasma membrane integrity. Calcein AM is a fluorogenic esterase substrate that enters the live cells through permeability and is enzymatically hydrolyzed to form the polyanionic dye calcein, which is well retained within live cells due to the intact plasma membranes and produces an intense uniform green fluorescence at 530 nm. Ethidium homodimer is excluded from live cells and only able to enter cells through compromised plasma membranes and binds to nucleic acid by intercalating between the base pairs, producing a bright red fluorescence at 645 nm. Therefore, Calcein AM and ethidium homodimer serve as two indicators for the identification of live and dead cells respectively.
Cultures were rinsed with phosphate-buffered saline (PBS) and incubated with the combined 1 μM calcein AM and 2 μM ethidium homodimer PBS solution at room temperature for 30 min. The fluorescence intensities were measured on a SpectraMax GEMINI EM dual-wavelength-scanning microplate spectrofluometer (Molecular Devices Corp., Sunnyvale, Calif.) using appropriate excitation and emission filter combinations (485/530 nm for calcein AM and 530/645 nm for ethidium homodimer).

[4] = tested on: Bcl-2; assay: Bcl-2 expression, Western immunoblotting; conditions: 100 nM, 48 h
[5] = tested on: MCF-7 cells; assay: MCF-7 cell proliferation, MTT; type: cell-based, human; conditions: 3 days, serially diluted concentrations, MTT at 570 nm
[6] = tested on: spinophilin; assay: Spinophilin expression in hippocampal neurons; conditions: 100 nM, 48 h
[7] = tested on: rat primary hippocampal neurons; assay: Neuroprotection against glutamate-induced neurotoxicity, LDH release; type: cell-based
[8] = biological target: full-length human ERβ (Homo sapiens, UniProt Q92731); assay: Fluorescence polarization-based competitive binding assay, ERβ
[9] = tested on: rat primary hippocampal neurons; assay: Neuroprotective efficacy (NE) against glutamate-induced neurotoxicity over time; type: cell-based; conditions: for Neuroprotective efficacy 2 hours after glutamate exposure / Neuroprotective efficacy 5 hours after glutamate exposure / Neuroprotective efficacy 7.5 hours after glutamate exposure / Neuroprotective efficacy 10 minutes after glutamate exposure: glutamate 200 μM; for time course of neuroprotection: early vs later time points after glutamate
Description: FIGS. 13A-E are graphs showing the neuroprotective efficacy of NS2 (FIG. 13A); NS1-1 (FIG. 13B); NS1-2 (FIG. 13C); NS1-3 (FIG. 13D); and NS1-4 (FIG. 13E) against glutamate-induced neurotoxicity in rat primary hippocampal neurons as a function of time and concentration (nM).
The assay for evaluating neuroprotective efficacy after glutamate exposure is discussed above. The following compounds were evaluated: NS2; NS1-1; NS1-2; NS1-3; and NS1-4. The results are shown in the Tables 4-8 and are presented graphically in FIGS. 13A-E.
Results are presented as neuroprotective efficacy (NE), which is defined as the percentage of neurotoxin-induced toxicity prevented by the test compounds (or combinations) and quantified by the equation:
NE=(Vtreatment−Vneurotoxin)/(Vcontrol−Vneurotoxin)*100%
where Vtreatment is the individual value from the test compounds (or combinations)-treated cultures, Vneurotoxin is a mean value from glutamate treated cultures, and Vcontrol is a mean value from vehicle-treated control cultures.

Chain of full-length human ERβ (Q92731 whole entry): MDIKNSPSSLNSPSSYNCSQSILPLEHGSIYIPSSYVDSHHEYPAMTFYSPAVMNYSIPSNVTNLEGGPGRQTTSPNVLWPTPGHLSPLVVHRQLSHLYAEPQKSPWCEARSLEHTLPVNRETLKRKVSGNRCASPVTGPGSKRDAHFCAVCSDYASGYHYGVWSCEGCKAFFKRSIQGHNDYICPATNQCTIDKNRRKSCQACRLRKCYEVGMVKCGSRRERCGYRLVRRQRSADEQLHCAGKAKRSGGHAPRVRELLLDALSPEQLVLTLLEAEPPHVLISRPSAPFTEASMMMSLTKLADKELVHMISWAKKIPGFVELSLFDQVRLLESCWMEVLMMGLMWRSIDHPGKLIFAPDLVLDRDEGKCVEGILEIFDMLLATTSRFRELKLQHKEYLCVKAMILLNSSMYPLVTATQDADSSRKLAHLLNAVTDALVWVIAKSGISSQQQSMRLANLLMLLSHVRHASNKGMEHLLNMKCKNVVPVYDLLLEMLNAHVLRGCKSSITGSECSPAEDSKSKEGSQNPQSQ

SMILES | Neuroprotective efficacy 2 hours after glutamate exposure ([9]; 1 nM) [%] | Neuroprotective efficacy 2 hours after glutamate exposure ([9]; 10 nM) [%] | Neuroprotective efficacy 2 hours after glutamate exposure ([9]; 100 nM) [%] | Neuroprotective efficacy 2 hours after glutamate exposure ([9]; 1000 nM) [%] | time course of neuroprotection [9] | Neuroprotective efficacy 7.5 hours after glutamate exposure ([9]; 1 nM) [%] | Neuroprotective efficacy 7.5 hours after glutamate exposure ([9]; 10 nM) [%] | Neuroprotective efficacy 7.5 hours after glutamate exposure ([9]; 100 nM) [%] | Neuroprotective efficacy 7.5 hours after glutamate exposure ([9]; 1000 nM) [%] | other results
C[C@]12CC[C@@H]3c4ccc(O)cc4CC[C@H]3[C@@H]1CC[C@@H]2O [17β-estradiol] | – | – | – | – | – | – | – | – | – | increase in ERK2 phosphorylation compared to vehicle [1]: 38.0±7.7%
CC(C)CCC[C@@H](C)CCC[C@@H](C)CCC[C@@H]1Cc2cc(O)ccc2C2CC[C@@]3(C)C(CC[C@@H]3O)C21 (stereo partly drawn) [NS1, 7α-[(4R,8R)-4,8,12-trimethyltridecyl]estra-1,3,5-trien-3,17β-diol] | – | – | – | – | – | – | – | – | – | IC50 [2]: 193 nM; increase in neuronal metabolic viability compared with glutamate alone (calcein AM) ([3]; 1 nM): 2.7±3.2%; increase in neuronal metabolic viability compared with glutamate alone (calcein AM) ([3]; 10 nM): 9.3±3.7%; increase in neuronal metabolic viability compared with glutamate alone (calcein AM) ([3]; 100 nM): 28.4±3.2%; increase in neuronal metabolic viability compared with glutamate alone (calcein AM) ([3]; 1000 nM): 25.6±4.4%; increase in Bcl-2 expression compared to vehicle [4]: 23.4±6.8%; MCF-7 cell proliferation [5]: does not induce MCF-7 cell proliferation; increase in spinophilin expression compared to vehicle [6]: 61.7±8.2%; less potency than 17β-estradiol and ICI 182,780 in neuroprotection [7]: 10 fold; increase in neuronal membrane integrity compared with glutamate alone (LDH release) ([7]; 1 nM): 38.6±3.8%; increase in neuronal membrane integrity compared with glutamate alone (LDH release) ([7]; 10 nM): 44.1±3.8%; increase in neuronal membrane integrity compared with glutamate alone (LDH release) ([7]; 100 nM): 67.0±4.0%; increase in neuronal membrane integrity compared with glutamate alone (LDH release) ([7]; 1000 nM): 59.1±3.7%; IC50 ([8]; competition with EL Red): 267 nM
CCCCCCCCCCCCCCCC[C@@H]1Cc2cc(O)ccc2C2CC[C@@]3(C)C(CC[C@@H]3O)C21 (stereo partly drawn) [NS1-1] | 12.7957 | 41.8183 | 77.2530 | 70.8102 | neuroprotective at early time points with diminished protection at later time points | – | – | – | – | Neuroprotective efficacy 5 hours after glutamate exposure ([9]; 1 nM): 3.769%; Neuroprotective efficacy 5 hours after glutamate exposure ([9]; 10 nM): 20.8614%; Neuroprotective efficacy 5 hours after glutamate exposure ([9]; 100 nM): 23.8415%; Neuroprotective efficacy 5 hours after glutamate exposure ([9]; 1000 nM): 11.9900%
C[C@]12CCC3c4ccc(O)cc4C[C@@H](CCCCCCCCCCCCCCCCO)C3C1CC[C@@H]2O (stereo partly drawn) [NS1-2] | 17.5192 | 51.3940 | 32.3028 | 24.9982 | neuroprotective at early time points and increases in magnitude at later time points | 26.5265 | 76.6877 | 93.0520 | 47.1665 | –
C[C@]12CCC3c4ccc(O)cc4C[C@@H](CCCCCCCCCCCCCCCCOCc4ccccc4)C3C1CC[C@@H]2O (stereo partly drawn) [NS1-3] | 15.44 | 55.77 | 87.33 | 78.43 | neuroprotective at early time points with diminished protection at later time points | 8.102 | 28.06 | 51.87 | 53.3893 | –
CC(C)CCC[C@@H](C)CCC[C@@H](C)CCC[C@H](C)CC[C@@H]1Cc2cc(O)ccc2C2CC[C@@]3(C)C(CC[C@@H]3O)C21 (stereo partly drawn) [NS1-4] | 51.86 | 86.27 | 110.3902 | 94.3991 | neuroprotective at early time points with diminished protection at later time points | 8.415 | 28.8 | 69.76 | 38.0418 | –
CC(C)=CCC/C(C)=C/CC/C(C)=C/CC1=C(c2ccc(O)cc2)C(=O)c2ccc(O)cc2C1=O [NS2] | 3.937 | 30.96 | 68.16 | 73.84 | neuroprotective at early time points and increases in magnitude at later time points | – | – | – | – | Neuroprotective efficacy 10 minutes after glutamate exposure ([9]; 1 nM): −10.3103%; Neuroprotective efficacy 5 hours after glutamate exposure ([9]; 1 nM): 24.94%; Neuroprotective efficacy 10 minutes after glutamate exposure ([9]; 10 nM): −3.6302%; Neuroprotective efficacy 5 hours after glutamate exposure ([9]; 10 nM): 44%; Neuroprotective efficacy 10 minutes after glutamate exposure ([9]; 100 nM): 33.68%; Neuroprotective efficacy 5 hours after glutamate exposure ([9]; 100 nM): 71.35%; Neuroprotective efficacy 10 minutes after glutamate exposure ([9]; 1000 nM): 40.51%; Neuroprotective efficacy 5 hours after glutamate exposure ([9]; 1000 nM): 76.45%
CC(=O)[C@H]1CC[C@H]2[C@@H]3CCC4=CC(=O)CC[C@]4(C)[C@H]3CC[C@]12C [progesterone, reference compound] | – | – | – | – | – | – | – | – | – | binding to ERα ([2]; negative control): does not bind; binding to ERβ ([8]; negative control): does not bind
